Key:
[1] = test system: luminal MECs; experiment: Mammosphere assay, primary luminal cells after pre-treatment; format: cell-based, human; settings: 5-day treatment
Text: FIGS. 7A-7G. Migratory and self-renewal properties in primary MECs: inhibition and induction. (FIG. 7A) Mammosphere Assay: microscopy images of mammospheres and quantification of mammosphere formation by purified basal, luminal and unsorted MEC populations. Primary spheres were allowed to form over a period of 7 days, dissociated and seeded for secondary sphere formation, n(mammosphere)/1000 cells, n=48, (FIG. 7B) Migration Assay: microscopy images of migrated cells in Boyden Chambers and quantification, n=6. (FIG. 7C) Mammosphere Assay: basal cells were seeded into assay after a 5 day pre-treatment with TGF-beta inhibitors A83-01 and […] (SB43, both inhibitors at 10 μM) as well as recombinant SFRP1 (1 μg/ml), n(mammospheres)/1000 cells, n=6. (FIG. 7D) Migration Assay: basal cells were seeded into migration assays treated after 5 day pre-treatment as described in (C), n=24. (FIG. 7E) Mammosphere Assay: luminal cells were seeded into the assay following a 5 day pre-treatment with TGF-beta 1 (5 ng/ml), Wnt5a (250 ng/ml), anti-E-Cadherin antibody (1 μg/ml) plus anti-DKK1 antibody (10 μg/ml), and a cocktail of all factors added together (iEMT-II), n(mammospheres)/1000 cells, n=24. (FIG. 7F) Migration Assay: luminal cells were seeded into Boyden Chambers following a 5 day pre-treatment as described in (E), n=6. […]

[2] = test system: RAS-transformed HMLE cells; experiment: Lung metastasis of RAS-transformed treated HMLE cells from mammary fat pads; format: in vivo; settings: cells implanted into mammary fat pads of mice
Protocol: FIGS. 5A-5H. Concomitant stimulation of Wnt and TGF-beta pathways allows HMLE^24+ cells to enter into a mesenchymal and SC-like state. (FIG. 5A) RT-PCR: N-Cadherin, Zeb1 and Zeb2, L32 was loading control, n=3. Prior RNA isolation, HMLE^24+-shGFP or -shSFRP1 (stable knockdown of SFRP1, FIG. 12A) cells were treated for 3 days with daily doses of indicated factors: anti-DKK1 antibody (10 μg/ml), anti-E-Cadherin antibody (1 μg/ml), TGF-beta 1 (5 ng/ml), Wnt5a (250 ng/ml), (FIG. 5B) Brightfield microscopy: images of control, TGF-beta- and iEMT-cocktail treated HMLE^24+ cells after 14 days of treatment as indicated (see also FIG. 12D). (FIG. 5C) RT-PCR: Zeb1, Zeb2, E-Cadherin and N-Cadherin, L32 was loading control, n=3. After 14 day treatment, cells were expanded in absence of further stimulation for 4 passages. […] (FIG. 5G) Lung metastasis: cells expanded for 8 passages after cessation of treatment as described in (C) were transformed with RAS; 1.0×10^5 cells were injected into the mammary fat pads of mice; GFP-labeled metastases on the surface of the lungs were quantified; *control vs. all other groups, p<0.05, n=5 mice/group. […]
Animal studies. […] Lung surface metastases were counted using a fluorescent microscope within 3 hr of specimen isolation.

[3] = test system: MSP cells; experiment: Mammosphere assay, MSP cells; format: cell-based, human
Protocol: FIGS. 3A-3E. Autocrine Signaling controls migration and mammosphere formation.
Mammosphere and tumorsphere assay. Assays were performed as previously described with modifications (Dontu et al., 2003): 1000 cells/well were seeded in 96-well ultra-low adhesion plates (Corning) in MEGM medium containing 1.3% methylcellulose (Stem Cell Technologies) supplemented with 20 ng/ml EGF, 10 ng/ml bFGF (both Sigma) and B27 (Gibco). Primary spheres were dissociated by trypsinization and replated for secondary sphere formation after a period of 5-7 days.

Molecule: TGF-beta 1: recombinant TGF-beta 1 protein, used at 5 ng/ml
- increase in mammosphere-forming cells / efficiency [1]: 3 fold
- lung metastatic foci of RAS-transformed treated cells [2]: only weakly metastatic

B1: SFRP1: Recombinant human SFRP1 protein (R&D Systems), secreted decoy receptor binding canonical and non-canonical Wnt ligands (protein, UniProt Q8N474 32-314, looked up)
Secreted frizzled-related …: SEYDYVSFQSDIGPYQSGRFYTKPPQCVDIPADLRLCHNVGYKKMVLPNLLEHETMAEVKQQASSWVPLLNKNCHAGTQVFLCSLFAPVCLDRPIYPCRWLCEAVRDSCEPVMQFFGFYWPEMLKCDKFPEGDVCIAMTPPNATEASKPQGTTVCPPCDNELKSEAIIEHLCASEFALRMKIKEVKKENGDKKIVPKKKKPLKLGPIKKKDLKKLVLYLKNGADCPCHQLDNLSHHFLIMGRKVKSQYLLTAIHKWDKKNKEFKNFMKKMKNHECPTFQSVFK
- reduction of primary mammosphere number ([3]; added daily for 5 days (FIG. 3D)): 40%
- reduction of secondary sphere formation ([3]; treated during primary sphere formation only): 80%
